This is an account of results in paper PMC9112895, “Selective Inhibition of Plasmodium falciparum ATPase 6 by Artemisinins and Identification of New Classes of Inhibitors after Expression in Yeast” (Antimicrobial Agents and Chemotherapy, 2022).

Assay [1] has as its target T1, A623E PfATP6 (Plasmodium falciparum, UniProt Q08853, A623E).
T1 construct: expressed in transfected cells; host or cells: Saccharomyces cerevisiae K667-derived strain
T1 sequence (Q08853 1-1228 A623E): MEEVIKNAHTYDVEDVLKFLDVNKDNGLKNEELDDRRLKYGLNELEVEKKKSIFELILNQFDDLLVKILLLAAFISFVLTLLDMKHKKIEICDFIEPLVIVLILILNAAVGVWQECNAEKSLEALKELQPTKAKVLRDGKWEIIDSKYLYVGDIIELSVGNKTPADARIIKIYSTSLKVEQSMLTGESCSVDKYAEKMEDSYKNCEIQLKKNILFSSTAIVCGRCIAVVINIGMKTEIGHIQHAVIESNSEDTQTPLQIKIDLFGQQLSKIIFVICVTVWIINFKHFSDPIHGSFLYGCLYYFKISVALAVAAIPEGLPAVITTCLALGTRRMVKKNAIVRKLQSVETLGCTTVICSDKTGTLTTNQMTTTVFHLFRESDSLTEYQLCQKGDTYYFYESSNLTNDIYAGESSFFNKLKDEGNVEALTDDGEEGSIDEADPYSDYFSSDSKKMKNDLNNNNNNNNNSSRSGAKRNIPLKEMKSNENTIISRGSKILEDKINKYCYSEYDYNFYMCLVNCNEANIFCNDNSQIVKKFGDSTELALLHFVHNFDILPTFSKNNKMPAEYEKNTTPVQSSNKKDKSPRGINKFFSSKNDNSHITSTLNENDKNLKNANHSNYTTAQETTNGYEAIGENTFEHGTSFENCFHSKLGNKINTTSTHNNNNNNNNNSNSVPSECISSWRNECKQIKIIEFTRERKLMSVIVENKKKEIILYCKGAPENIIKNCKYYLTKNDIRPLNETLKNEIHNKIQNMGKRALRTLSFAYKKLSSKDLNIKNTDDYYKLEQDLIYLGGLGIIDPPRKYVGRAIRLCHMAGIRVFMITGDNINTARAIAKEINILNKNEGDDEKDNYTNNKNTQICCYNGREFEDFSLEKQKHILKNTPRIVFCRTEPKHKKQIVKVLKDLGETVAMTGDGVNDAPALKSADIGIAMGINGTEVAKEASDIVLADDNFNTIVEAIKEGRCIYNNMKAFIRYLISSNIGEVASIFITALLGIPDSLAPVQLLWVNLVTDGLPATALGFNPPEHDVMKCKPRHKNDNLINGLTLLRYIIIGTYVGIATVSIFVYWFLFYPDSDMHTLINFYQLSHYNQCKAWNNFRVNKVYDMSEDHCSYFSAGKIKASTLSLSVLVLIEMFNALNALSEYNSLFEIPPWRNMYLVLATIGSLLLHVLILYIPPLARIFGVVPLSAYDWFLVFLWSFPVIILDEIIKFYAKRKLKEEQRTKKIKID
In words: Yeast whole-cell assay, PfATP6 A623E mutant. Format: cell-based. To be noted: read-out: IC50 (mean ± SD). How it is done:
Yeast transformations were performed using the method described by Gietz and Schiestl ([48]), and transformants were selected by an uracil auxotrophic marker. Transformations were confirmed by colony PCR. Both K667 and K667Δpdr5::HIS were transformed with the following plasmids: pUGpd plasmid as a vector-only control (derived from pRS316 [49]); br434 plasmid (derived from pRS316 [50]) containing the SERCA1a coding region from rabbit skeletal fast-twitch muscle (pbr434-SERCA1a); and pUGpd containing the yeast-optimized coding region of PfATP6 from Plasmodium falciparum (pUGpd-PfATP6). Site-directed mutagenesis was performed on the SERCA1a coding region to produce the mutation E255L in the protein. Mutations were also introduced into the PfATP6 coding region to produce mutations L263E, A623E, and S769N and the double mutation A623E/S769N ([13]).
The screening assay used here was developed from the protocol used by Pulcini et al. ([13]). […] The optimal calcium concentration was periodically monitored and, if necessary, adjusted using a calcium concentration range of 10 to 30 mM. […] The yeast growth was estimated from the absorbance at 620 nm in a Tecan plate reader. […] The data collected were analyzed using GraphPad Prism v9.0 (GraphPad software, San Diego, CA, U.S.A).

The target in assay [2] is SERCA1a (Oryctolagus cuniculus, UniProt P04191). In words: In vitro activity assay, SERCA1a (membrane-bound). Format: biochemical, rabbit. To be noted: parallel in vitro activity assay, 100 µM (Fig. S1D). The arrangement: containing the SERCA1a coding region from rabbit skeletal fast-twitch muscle; expressed in transfected cells. How it is done:
Activity assays were performed as described by Longland et al. ([55]) and LeBel et al. ([56]), except that the reaction mixtures were incubated at 30°C instead of 37°C. […] Then, 5.8 mM ATP was added and incubated for an additional 15 min at 30°C. The reaction was stopped with 0.5 mL 6.5% trichloroacetic acid (TCA) on ice, and the mixture was centrifuged at 4°C for 10 min at 16,000 × g; 0.5 mL of the supernatant was added to 1.5 mL of copper acetate buffer (0.25% copper sulfate pentahydrate, 4.6% sodium acetate trihydrate, dissolved in 2 M acetic acid [pH 4.0]) and mixed by vortex-mixing before the addition of 0.25 mL of 5% ammonium molybdate, followed by 0.25 mL METOL buffer (2% p-methyl-aminophenol sulfate, 5% sodium sulfite). Samples were incubated for 10 min, and the absorbance was measured at 870 nm in a spectrophotometer. The Pi standard was 0.4387 g/100 mL KH2PO4.

The structures appear in SMILES notation.

Sequence of SERCA1a (P04191 other isoform, or with tags, fused parts or gaps): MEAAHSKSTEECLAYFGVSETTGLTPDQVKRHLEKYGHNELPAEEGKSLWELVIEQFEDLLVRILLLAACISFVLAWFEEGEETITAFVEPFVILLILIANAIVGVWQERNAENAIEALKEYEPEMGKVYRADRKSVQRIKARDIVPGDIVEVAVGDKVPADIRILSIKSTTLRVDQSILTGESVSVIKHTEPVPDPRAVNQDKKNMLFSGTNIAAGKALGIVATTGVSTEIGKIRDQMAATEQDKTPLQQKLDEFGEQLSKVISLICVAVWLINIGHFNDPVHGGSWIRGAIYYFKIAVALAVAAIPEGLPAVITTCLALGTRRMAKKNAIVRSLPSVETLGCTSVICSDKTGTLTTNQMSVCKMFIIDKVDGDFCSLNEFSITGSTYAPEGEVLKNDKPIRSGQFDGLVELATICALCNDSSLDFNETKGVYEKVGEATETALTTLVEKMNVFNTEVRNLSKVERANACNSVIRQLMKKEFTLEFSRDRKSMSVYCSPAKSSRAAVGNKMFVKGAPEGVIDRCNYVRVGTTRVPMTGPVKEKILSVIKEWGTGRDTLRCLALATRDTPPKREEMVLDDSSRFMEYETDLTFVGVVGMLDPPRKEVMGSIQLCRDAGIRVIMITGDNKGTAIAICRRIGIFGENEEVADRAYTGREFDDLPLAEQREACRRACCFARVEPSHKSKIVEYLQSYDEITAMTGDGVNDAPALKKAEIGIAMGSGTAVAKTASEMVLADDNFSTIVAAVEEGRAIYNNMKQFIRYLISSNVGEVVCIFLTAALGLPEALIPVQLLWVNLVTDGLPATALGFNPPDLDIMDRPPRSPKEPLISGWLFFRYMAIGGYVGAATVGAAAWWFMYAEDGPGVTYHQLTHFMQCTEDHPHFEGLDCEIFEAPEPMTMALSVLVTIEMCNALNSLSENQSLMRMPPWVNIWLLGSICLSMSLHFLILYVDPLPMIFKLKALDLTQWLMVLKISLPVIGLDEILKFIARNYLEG

As for `CC(=O)C1=C(O)[C@@H]2[C@H]3c4c[nH]c5cccc(c45)C[C@H]3C(C)(C)N2C1=O` [CPA, cyclopiazonic acid], the IC50 in assay [1] is 5.86 µM. Further, the “inhibition of purified SERCA1a activity” value in assay [2] is “apparent inhibition”.
